ChEMBL document CHEMBL2010711, “Synthesis and comparative evaluation of 4-oxa- and 4-aza-podophyllotoxins as antiproliferative microtubule destabilizing agents” (Bioorg Med Chem Lett, 2012)
The source made the active and inactive calls.

Columns and labels:
SNB-75 = assay: Cytotoxicity against human SNB75 cells after 48 hrs by trypan blue dye exclusion assay; type: functional; settings: SNB-75, 48 h
COLO 205 = assay: Cytotoxicity against human COLO205 cells after 48 hrs by trypan blue dye exclusion assay; type: functional; settings: COLO 205, 48 h
786-0 = assay: Cytotoxicity against human 786-0 cells after 48 hrs by trypan blue dye exclusion assay; type: functional; settings: 786-0, 48 h
U-251 = assay: Cytotoxicity against human U251 cells after 48 hrs by trypan blue dye exclusion assay; type: functional; settings: U-251, 48 h
OVCAR-4 = assay: Cytotoxicity against human OVCAR4 cells after 48 hrs by trypan blue dye exclusion assay; type: functional; settings: OVCAR-4, 48 h
RPMI-8226 = assay: Cytotoxicity against human RPMI8226 cells after 48 hrs by trypan blue dye exclusion assay; type: functional; settings: RPMI-8226, 48 h
MDA-MB-435 = assay: Cytotoxicity against human MDA-MB-435 cells after 48 hrs by trypan blue dye exclusion assay; type: functional; settings: MDA-MB-435, 48 h
UO-31 = assay: Cytotoxicity against human UO31 cells after 48 hrs by trypan blue dye exclusion assay; type: functional; settings: UO-31, 48 h
HOP-92 = assay: Cytotoxicity against human HOP92 cells after 48 hrs by trypan blue dye exclusion assay; type: functional; settings: HOP-92, 48 h
DU-145 = assay: Cytotoxicity against human DU145 cells after 48 hrs by trypan blue dye exclusion assay; type: functional; settings: DU-145, 48 h
HL-60(TB) = assay: Cytotoxicity against human HL-60(TB) cells after 48 hrs by trypan blue dye exclusion assay; type: functional; settings: HL-60, 48 h
CAKI-1 = assay: Cytotoxicity against human CAKI-1 cells after 48 hrs by trypan blue dye exclusion assay; type: functional; settings: CAKI-1, 48 h
LOX IMVI = assay: Cytotoxicity against human LOXIMVI cells after 48 hrs by trypan blue dye exclusion assay; type: functional
M14 = assay: Cytotoxicity against human M14 cells after 48 hrs by trypan blue dye exclusion assay; type: functional; settings: M14, 48 h
NCI-H460 = assay: Cytotoxicity against human NCI-H460 cells after 48 hrs by trypan blue dye exclusion assay; type: functional; settings: NCI-H460, 48 h
MCF7 = assay: Cytotoxicity against human MCF7 cells after 48 hrs by trypan blue dye exclusion assay; type: functional; settings: MCF7, 48 h
HCT-116 = assay: Cytotoxicity against human HCT116 cells after 48 hrs by trypan blue dye exclusion assay; type: functional; settings: HCT-116, 48 h
A498 = assay: Cytotoxicity against human A498 cells after 48 hrs by trypan blue dye exclusion assay; type: functional; settings: A498, 48 h
NCI-H226 = assay: Cytotoxicity against human NCI-H226 cells after 48 hrs by trypan blue dye exclusion assay; type: functional; settings: NCI-H226, 48 h
CCRF-CEM = assay: Cytotoxicity against human CCRF-CEM cells after 48 hrs by trypan blue dye exclusion assay; type: functional
SN12C = assay: Cytotoxicity against human SN12C cells after 48 hrs by trypan blue dye exclusion assay; type: functional
ACHN = assay: Cytotoxicity against human ACHN cells after 48 hrs by trypan blue dye exclusion assay; type: functional
HCT-15 = assay: Cytotoxicity against human HCT15 cells after 48 hrs by trypan blue dye exclusion assay; type: functional; settings: HCT-15, 48 h
HT-29 = assay: Cytotoxicity against human HT-29 cells after 48 hrs by trypan blue dye exclusion assay; type: functional; settings: HT-29, 48 h
[1] = Cytotoxicity against human Hs 578T cells after 48 hrs by trypan blue dye exclusion assay; type: functional
Paracentrotus lividus [2] = assay: Microtubule destabilizing activity in Paracentrotus lividus embryo assessed as embryo spinning at 2 fold less effective threshold concentration after 15 mins to 20 hrs; type: functional, organism-based
Paracentrotus lividus [3] = assay: Microtubule destabilizing activity in Paracentrotus lividus embryo assessed as concentration required to cause 100% embryo spinning after 15 mins to 20 hrs; type: functional
Paracentrotus lividus [4] = assay: Antimitotic activity against Paracentrotus lividus embryo assessed as concentration required to cause 100% cleavage alteration after 2.5 to 6 hrs; type: functional
BT-549 = assay: Cytotoxicity against human BT549 cells after 48 hrs by trypan blue dye exclusion assay; type: functional; settings: BT-549, 48 h
NCI/ADR-RES = assay: Cytotoxicity against human NCI/ADR-RES cells after 48 hrs by trypan blue dye exclusion assay; type: functional

Structure (SMILES): COc1ccc2c(c1)OC1=C(C(=O)OC1)C2c1cc(OC)c2c(c1)OCCO2 (stereo not given)
- GI50 (SNB-75): 0.0337 µM
- GI50 (COLO 205): 0.0307 µM
- GI50 (786-0): 0.0614 µM
- GI50 (U-251): 0.0851 µM
- GI50 (OVCAR-4): 0.236 µM
- GI50 (RPMI-8226): 0.041 µM
- GI50 (MDA-MB-435): 0.0197 µM
- GI50 (UO-31): 0.0713 µM
- GI50 (HOP-92): 0.0416 µM
- GI50 (DU-145): 0.0519 µM
- GI50 (HL-60(TB)): 0.0232 µM
- GI50 (CAKI-1): 0.0363 µM
- GI50 (LOX IMVI): 0.0485 µM
- GI50 (M14): 0.0522 µM
- GI50 (NCI-H460): > 100 µM
- GI50 (MCF7): 0.0329 µM
- GI50 (HCT-116): 0.0483 µM
- GI50 (A498): 0.0231 µM
- GI50 (NCI-H226): 0.0712 µM
- GI50 (CCRF-CEM): 0.0313 µM
- GI50 (SN12C): 0.054 µM
- GI50 (ACHN): 0.171 µM
- GI50 (HCT-15): 0.0475 µM
- GI50 (HT-29): 0.0384 µM
- GI50 [1]: 0.0308 µM
- Activity (Paracentrotus lividus [2]): inactive
- EC (Paracentrotus lividus [3]): 500 nM
- EC (Paracentrotus lividus [4]): 10 nM
- GI50 (BT-549): 0.131 µM
- GI50 (NCI/ADR-RES): 0.0235 µM
